Experiments:
normal HSCs = assay: Colony-forming assay, LT-normal HSCs on OP-9 stromal cells; assay type: cell-based, mouse; conditions: 5 μM, 5 days, hypoxic (3% O2)
Description: LT-CML stem cells or LT-normal HSCs (1×10^3/plate) were co-cultured on OP-9 stromal cells for 5 days in the presence of either vehicle (control) or a dipeptide transporter inhibitor cefadroxil (5 μM). Cells were harvested, washed with PBS, and plated in semi-solid methylcellulose medium containing SCF, IL-3, IL-6 and erythropoietin (Methocult GF M3434; Stem Cell Technologies). After growth for 7 days in a humidified atmosphere containing 5% CO2 at 37° C., colony numbers were counted under a light microscope.

Raptor-Ser863 = assay: Duolink in situ PLA, Raptor-Ser863 phosphorylation in LT-CML cancer stem cells; assay type: cell-based, mouse; conditions: 30 min; GlySar or cefadroxil 5 μM; rapamycin 100 nM
Description: To examine phosphorylation of Smad2, Smad3, p38MAPK, AMPK, and S6 ribosomal protein, and Foxo3a-Smad2 and Foxo3a-Smad3 interactions, Duolink® in situ PLA assay (Olink Bioscience) was used. LT-CML stem cells, ST-CML stem cells, CD48^+, MPP, and KLS^− CML cells that were freshly isolated from CML-affected mice, and LT-normal HSCs that were freshly isolated from healthy control littermates, were immediately fixed with 4% paraformaldehyde for 30 min.
For in vitro inhibitor experiments, LT-CML stem cells were incubated in 3% O2 at 37° C. for 30 min with vehicle (control; artificial gastric fluid solution (900 ml ddH2O containing 2.0 g of NaCl, 7 ml of conc. HCl and 3.2 g of pepsin)), 5 μM Ly364947 (TGF-β type I receptor kinase Alk5 inhibitor; Merck), 5 μM SB203580 (p38MAPK inhibitor; LC Laboratories), 5 μM GlySar (dipeptide transporter inhibitor; Sigma-Aldrich), 5 μM cefadroxil (dipeptide transporter inhibitor; Sigma-Aldrich), or 100 nM rapamycin (mTORC1 inhibitor; Cell Signaling Technologies). […]
The proximate binding of these antibodies was then detected using Duolink® in situ PLA system which employs a set of two secondary antibodies in which one is conjugated to a minus strand PLA probe and the other is conjugated to a plus strand PLA probe. […] The number of fluorescent foci per single cell was quantified using Duolink®Image Tool software (Olink Bioscience).

Question: Which results are given for CC1=C(C(=O)O)N2C(=O)[C@@H](NC(=O)[C@H](N)c3ccc(O)cc3)[C@H]2SC1 [cefadroxil]?
Answer: colony-forming capacity of normal HSCs (normal HSCs): maintained normal levels; phosphorylation of Raptor-Ser863 (Raptor-Ser863): decreased phosphorylation
